Converted amounts (≈) assume the structure as drawn.
Key:
[1] = Solubility of eplerenone in pure solubilizers at room temperature; assay type: physicochemical; conditions: organic solvent or mixture
Description: Preparation of a pharmaceutically acceptable parenteral eplerenone formulation is therefore made difficult by the fact that (a) the solubility of eplerenone in many otherwise parenterally acceptable solubilizers, even in such solubilizers in pure form, is very low, (b) eplerenone dose requirements are relatively high (e.g. about 50 mg/day or more), and (c) the concentration and/or total amount of many parenterally acceptable solubilizers which can be safely parenterally delivered to a subject is relatively low.

[2] = Storage stability of eplerenone solution formulations SF-2 to SF-5 at different pH, HPLC (Example 2); assay type: physicochemical; conditions: storage at various temperatures and for various time periods
Source text: The pH of each formulation was adjusted as indicated.
Aliquots of each solution formulation were stored at four different temperatures for a period of 12 weeks. Degradation of eplerenone was monitored via high performance liquid chromatography (HPLC) throughout storage.
Cells in Table 3 which have the symbol “--” therein indicate that no stability data was collected for that particular time and storage temperature.

COC(=O)[C@@H]1CC2=CC(=O)CC[C@]2(C)[C@@]23O[C@@H]2C[C@@]2(C)[C@@H](CC[C@@]24CCC(=O)O4)[C@H]13 [eplerenone, methyl hydrogen 9,11α-epoxy-17α-hydroxy-3-oxopregn-4-ene-7α,21-dicarboxylate, γ-lactone]
solubility ([1]; pure glycerin, room temperature): < 1600 µg/mL
solubility ([1]; pure polyethylene glycol 400, room temperature): 3300 to 5700 µg/mL (≈ 7.96 to 13.8 mM)
solubility ([1]; pure propylene glycol, room temperature): < 300 µg/mL
stability of eplerenone in solution by pH (in words) [2]: more stable in a solution maintained at a pH of 5 than at a pH of 2, 7 or 9

— patent US20050080046A1, “Storage stable eplerenone formulation” (priority 2002, published 2005)
